From patent US11091478B2 (Fochon Pharmaceuticals, Ltd., priority 2017, dated 2021)
Read-outs that look alike come from different tables or passages of the source.

Key:
DOHH2 cells = assay: Cell proliferation assay (MTS), DOHH2 cells, 120 h; format: cell-based
Outline: (§1)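 Cells in RPMI-1640 with 10% FBS were seeded at 5000/well, left overnight at 37° C., 5% CO2, then exposed to compound at 10000 down to 1.5 nM (nine concentrations) for 72 h (RS4;11) or 120 h (DOHH2). Viability was read by MTS, 2 h, absorbance at 490/650 nm; IC50 calculated.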

RS4;11 cells = assay: Cell proliferation assay (MTS), RS4;11 cells, 72 h; format: cell-based; settings: Homo sapiens, RS4-11, 72 h
Outline: as §1

SMILES: CC1(C)CCC(CN2CCN(c3ccc(C(=O)NS(=O)(=O)c4cc5c(c([N+](=O)[O-])c4)N[C@@H](Cc4ccccc4C#N)CO5)c(Oc4cnc5[nH]ccc5c4)c3)CC2)=C(c2ccc(Cl)cc2)C1 [Example 2-208, (S)-2-((1H-pyrrolo[2,3-b]pyridin-5-yl)oxy)-4-(4-((4′-chloro-5,5-dimethyl-3,4,5,6-tetra-hydro-[1,1′-biphenyl]-2-yl)methyl)piperazin-1-yl)-N-((3-(2-cyanobenzyl)-5-nitro-3,4-dihydro-2H-benzo[b][1,4]oxazin-7-yl)sulfo-nyl)benzamide]
- IC50 (DOHH2 cells; Homo sapiens, DOHH-2, 120 h): 0.11 µM
- IC50 (RS4;11 cells): 0.017 µM

SMILES: COC(=O)N=S1(=O)CCN(CC[C@@H]2COc3cc(S(=O)(=O)NC(=O)c4ccc(N5CCN(CC6=C(c7ccc(Cl)cc7)CC(C)(C)CC6)CC5)cc4Oc4cnc5[nH]ccc5c4)cc([N+](=O)[O-])c3N2)CC1 [Example 2-130, methyl (R)-(4-(2-(7-(N-(2-((1H-pyrrolo[2,3-b]pyri-din-5-yl)oxy)-4-(4-((4′-chloro-5,5-dimethyl-3,4,5,6-tetrahydro-[1,1′-biphenyl]-2-yl)meth-yl)piperazin-1-yl)benzoyl)sulfamoyl)-5-nitro-3,4-dihydro-2H-benzo[b][1,4]oxazin-3-yl)ethyl)-1-oxido-1λ^6-thiomorpholin-1-ylidene)carbamate]
- IC50 (DOHH2 cells; Homo sapiens, DOHH-2, 120 h): 0.026 µM
- IC50 (RS4;11 cells): 0.014 µM

SMILES: CC1(C)CCC(CN2CCN(c3ccc(C(=O)NS(=O)(=O)c4cc5c(c([N+](=O)[O-])c4)O[C@@H](CN4CCOCC4)CO5)c(Oc4cnc5[nH]ccc5c4)c3)CC2)=C(c2ccc(Cl)cc2)C1 [Example 5-1, (S)-2-((1H-pyrrolo[2,3-b]pyridin-5-yl)oxy)-4-(4-((4′-chloro-5,5-dimethyl-3,4,5,6-tetrahydro-[1,1′-biphenyl]-2-yl)methyl)piperazin-1-yl)-N-((2-(morpholinomethyl)-8-nitro-2,3-dihydrobenzo[b][1,4]dioxin-6-yl)sulfonyl)benzamide]
- IC50 (DOHH2 cells; Homo sapiens, DOHH-2, 120 h): 0.017 µM
- IC50 (RS4;11 cells): 0.009 µM

SMILES: COC1CCC([C@H]2COc3cc(S(=O)(=O)NC(=O)c4ccc(N5CCN(CC6=C(c7ccc(Cl)cc7)CC(C)(C)CC6)CC5)cc4Oc4cnc5[nH]ccc5c4)cc([N+](=O)[O-])c3N2)CC1 (stereo partly shown) [Example 2-247A]
- IC50 (DOHH2 cells; Homo sapiens, DOHH-2, 120 h): 0.019 µM
- IC50 (RS4;11 cells): 0.024 µM

SMILES: CC1(C)CCC(CN2CCN(c3ccc(C(=O)NS(=O)(=O)c4cc5c(c([N+](=O)[O-])c4)N[C@@H](CN4CC(C)(O)C4)CO5)c(Oc4cnc5[nH]ccc5c4)c3)CC2)=C(c2ccc(Cl)cc2)C1 [Example 2-25, (S)-2-((1H-pyrrolo[2,3-b]pyridin-5-yl)oxy)-4-(4-((4′-chloro-5,5-dimethyl-3,4,5,6-tetra-hydro-[1,1′-biphenyl]-2-yl)methyl)piperazin-1-yl)-N-((3-((3-hydroxy-3-methylazetidin-1-yl)methyl)-5-nitro-3,4-dihydro-2H-ben-zo[b][1,4]oxazin-7-yl)sulfonyl)benzamide]
- IC50 (DOHH2 cells; Homo sapiens, DOHH-2, 120 h): 0.01 µM
- IC50 (RS4;11 cells): 0.008 µM

SMILES: CC1(C)CCC(CN2CCN(c3ccc(C(=O)NS(=O)(=O)c4cc5c(c([N+](=O)[O-])c4)N[C@@H](CN4CCCCC4)CO5)c(Oc4cnc5[nH]ccc5c4)c3)CC2)=C(c2ccc(Cl)cc2)C1 [Example 2-89, (S)-2-((1H-pyrrolo[2,3-b]pyridin-5-yl)oxy)-4-(4-((4′-chloro-5,5-dimethyl-3,4,5,6-tetra-hydro-[1,1′-biphenyl]-2-yl)methyl)piperazin-1-yl)-N-((5-nitro-3-(piperidin-1-ylmethyl)-3,4-dihydro-2H-benzo[b][1,4]oxazin-7-yl)sulfonyl)benzamide]
- IC50 (DOHH2 cells; Homo sapiens, DOHH-2, 120 h): 0.055 µM
- IC50 (RS4;11 cells): 0.05 µM

SMILES: CC1(C)CCC(CN2CCN(c3ccc(C(=O)NS(=O)(=O)c4cc5c(c([N+](=O)[O-])c4)N[C@H](CNS(=O)(=O)C4CC4)CO5)c(Oc4cnc5[nH]ccc5c4)c3)CC2)=C(c2ccc(Cl)cc2)C1 [Example 2-138, (R)-2-((1H-pyrrolo[2,3-b]pyridin-5-yl)oxy)-4-(4-((4′-chloro-5,5-dimethyl-3,4,5,6-tetra-hydro-[1,1′-biphenyl]-2-yl)methyl)piperazin-1-yl)-N-((3-(cyclopropanesulfonamidometh-yl)-5-nitro-3,4-dihydro-2H-benzo[b][1,4]oxazin-7-yl)sulfonyl)benzamide]
- IC50 (DOHH2 cells; Homo sapiens, DOHH-2, 120 h): 0.166 µM
- IC50 (RS4;11 cells): 0.072 µM

SMILES: CC1(C)CCC(CN2CCN(c3ccc(C(=O)NS(=O)(=O)c4cc5c(c([N+](=O)[O-])c4)N[C@@H](CC4CCC(O)CC4)CO5)c(Oc4cnc5[nH]ccc5c4)c3)CC2)=C(c2ccc(Cl)cc2)C1 (single isomer, unassigned) [Example 2-244A]
- IC50 (DOHH2 cells): 0.007 µM
- IC50 (RS4;11 cells): 0.003 µM

SMILES: COc1ccc([C@H]2COc3cc(S(=O)(=O)NC(=O)c4ccc(N5CCN(CC6=C(c7ccc(Cl)cc7)CC(C)(C)CC6)CC5)cc4Oc4cnc5[nH]ccc5c4)cc([N+](=O)[O-])c3N2)cc1 [Example 2-176, (S)-2-((1H-pyrrolo[2,3-b]pyridin-5-yl)oxy)-4-(4-((4′-chloro-5,5-dimethyl-3,4,5,6-tetra-hydro-[1,1′-biphenyl]-2-yl)methyl)piperazin-1-yl)-N-((3-(4-methoxyphenyl)-5-nitro-3,4-dihydro-2H-benzo[b][1,4]oxazin-7-yl)sul-fonyl)benzamide]
- IC50 (DOHH2 cells; Homo sapiens, DOHH-2, 120 h): 0.547 µM
- IC50 (RS4;11 cells): 0.064 µM

SMILES: COC(=O)NC[C@@H]1COc2cc(S(=O)(=O)NC(=O)c3ccc(N4CCN(CC5=C(c6ccc(Cl)cc6)CC(C)(C)CC5)CC4)cc3Oc3cnc4[nH]ccc4c3)cc([N+](=O)[O-])c2N1 [Example 2-134, methyl (R)-((7-(N-(2-((1H-pyrrolo[2,3-b]pyridin-5-yl)oxy)-4-(4-((4′-chloro-5,5-dimethyl-3,4,5,6-tetrahydro-[1,1′-biphenyl]-2-yl)methyl)piperazin-1-yl)benzoyl)sulfamoyl)-5-nitro-3,4-dihydro-2H-benzo[b][1,4]oxazin-3-yl)methyl)carbamate]
- IC50 (DOHH2 cells; Homo sapiens, DOHH-2, 120 h): 0.039 µM
- IC50 (RS4;11 cells): 0.002 µM

SMILES: CN1CCN(C[C@H]2COc3cc(S(=O)(=O)NC(=O)c4ccc(N5CCN(CC6=C(c7ccc(Cl)cc7)CC(C)(C)CC6)CC5)cc4Oc4cnc5[nH]ccc5c4)cc([N+](=O)[O-])c3N2)CC1 [Example 2-1, (S)-2-((1H-pyrrolo[2,3-b]pyridin-5-yl)oxy)-4-(4-((4′-chloro-5,5-dimethyl-3,4,5,6-tetrahydro-[1,1′-biphenyl]-2-yl)methyl)piperazin-1-yl)-N-((3-((4-methylpiperazin-1-yl)methyl)-5-nitro-3,4-dihydro-2H-benzo[b][1,4]oxazin-7-yl)sulfonyl)benzamide]
- IC50 (DOHH2 cells; Homo sapiens, DOHH-2, 120 h): 0.006 µM
- IC50 (RS4;11 cells): 0.001 µM

SMILES: CN1CCN(C[C@@H]2CSc3cc(S(=O)(=O)NC(=O)c4ccc(N5CCN(CC6=C(c7ccc(Cl)cc7)CC(C)(C)CC6)CC5)cc4Oc4cnc5[nH]ccc5c4)cc([N+](=O)[O-])c3N2)CC1 [Example 3-1, (R)-2-((1H-pyrrolo[2,3-b]pyridin-5-yl)oxy)-4-(4-((4′-chloro-5,5-dimethyl-3,4,5,6-tetrahydro-[1,1′-biphenyl]-2-yl)methyl)piperazin-1-yl)-N-((3-((4-methylpiperazin-1-yl)methyl)-5-nitro-3,4-dihydro-2H-benzo[b][1,4]thiazin-7-yl)sulfonyl)benzamide]
- IC50 (DOHH2 cells; Homo sapiens, DOHH-2, 120 h): 0.003 µM
- IC50 (RS4;11 cells): 0.001 µM

SMILES: CC1(C)CCC(CN2CCN(c3ccc(C(=O)NS(=O)(=O)c4cc5c(c([N+](=O)[O-])c4)N[C@H](CN4CCOCC4)CN5)c(Oc4cnc5[nH]ccc5c4)c3)CC2)=C(c2ccc(Cl)cc2)C1 [Example 4-2, (S)-2-((1H-pyrrolo[2,3-b]pyridin-5-yl)oxy)-4-(4-((4′-chloro-5,5-dimethyl-3,4,5,6-tetra-hydro-[1,1′-biphenyl]-2-yl)methyl)piperazin-1-yl)-N-((2-(morpholinomethyl)-8-nitro-1,2,3,4-tetrahydroquinoxalin-6-yl)sulfonyl) benzamide]
- IC50 (DOHH2 cells; Homo sapiens, DOHH-2, 120 h): 0.029 µM
- IC50 (RS4;11 cells): 0.009 µM

SMILES: COC(=O)N1CCN(C[C@@H]2COc3cc(S(=O)(=O)NC(=O)c4ccc(N5CCN(CC6=C(c7ccc(Cl)cc7)CC(C)(C)CC6)CC5)cc4Oc4cnc5[nH]ccc5c4)cc([N+](=O)[O-])c3N2)CC1 [Example 2-93, methyl (R)-4-((7-(N-(2-((1H-pyrrolo[2,3-b]pyridin-5-yl)oxy)-4-(4-((4′-chloro-5,5-dimethyl-3,4,5,6-tetrahydro-[1,1′-biphenyl]-2-yl)methyl)piperazin-1-yl)benzoyl)sulfamoyl)-5-nitro-3,4-dihydro-2H-benzo[b][1,4]oxazin-3-yl)methyl)piperazine-1-carboxylate]
- IC50 (DOHH2 cells; Homo sapiens, DOHH-2, 120 h): 0.016 µM
- IC50 (RS4;11 cells): 0.04 µM

SMILES: C[C@H]1CN(CC[C@H]2COc3cc(S(=O)(=O)NC(=O)c4ccc(N5CCN(CC6=C(c7ccc(Cl)cc7)CC(C)(C)CC6)CC5)cc4Oc4cnc5[nH]ccc5c4)cc([N+](=O)[O-])c3N2)CCO1 [Example 2-51]
- IC50 (DOHH2 cells; Homo sapiens, DOHH-2, 120 h): 0.013 µM
- IC50 (RS4;11 cells): 0.01 µM

SMILES: CC(=O)N1CCC(C[C@H]2COc3cc(S(=O)(=O)NC(=O)c4ccc(N5CCN(CC6=C(c7ccc(Cl)cc7)CC(C)(C)CC6)CC5)cc4Oc4cnc5[nH]ccc5c4)cc([N+](=O)[O-])c3N2)CC1 [Example 2-194, (S)-2-((1H-pyrrolo[2,3-b]pyridin-5-yl)oxy)-N-((3-((1-acetylpiperidin-4-yl)methyl)-5-nitro-3,4-dihydro-2H-benzo[b][1,4]oxazin-7-yl)sulfonyl)-4-(4-((4′-chloro-5,5-dimethyl-3,4,5,6-tetrahydro-[1,1′-biphenyl]-2-yl)meth-yl)piperazin-1-yl)benzamide]
- IC50 (DOHH2 cells; Homo sapiens, DOHH-2, 120 h): 0.074 µM
- IC50 (RS4;11 cells): 0.005 µM

SMILES: COC(=O)N1CCC([C@H]2COc3cc(S(=O)(=O)NC(=O)c4ccc(N5CCN(CC6=C(c7ccc(Cl)cc7)CC(C)(C)CC6)CC5)cc4Oc4cnc5[nH]ccc5c4)cc([N+](=O)[O-])c3N2)CC1 [Example 2-230, methyl (S)-4-(7-(N-(2-((1H-pyrrolo[2,3-b]pyridin-5-yl)oxy)-4-(4-((4′-chloro-5,5-dimethyl-3,4,5,6-tetrahydro-[1,1′-biphenyl]-2-yl)methyl)piperazin-1-yl)benzoyl)sulfamoyl)-5-nitro-3,4-dihydro-2H-benzo[b][1,4]oxazin-3-yl) piperidine-1-carboxylate]
- IC50 (DOHH2 cells; Homo sapiens, DOHH-2, 120 h): 0.002 µM
- IC50 (RS4;11 cells): 0.001 µM
